According to PubChem BioAssay (NCI):
Where “and” joins values, the source holds several entries; their conditions need not be identical. Equal values may be shown once.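 Each compound was tested at five concentrations against cells in 96-well plates for 48 hours. Here, GI50 denotes the concentration required for 50% inhibition of growth. At the TGI there is no net growth.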

Experiments:
Assay in all cases: growth of human tumour cells (NCI), 48 h
[1] = tested on: HCT-116 colon
[2] = tested on: HL-60(TB) leukemia
[3] = tested on: HS 578T breast
[4] = tested on: IGROV1 ovarian
[5] = tested on: LOX IMVI melanoma
[6] = tested on: M14 melanoma
[7] = tested on: MDA-MB-231 breast
[8] = tested on: UACC-257 melanoma

CC(NNC(=S)N1CCN(c2ccccn2)CC1)c1nccc2ccccc12 (centres undefined)
TGI [1]: 9.29 µM | TGI [2]: 1.18 µM | TGI [3]: 61.6 µM | TGI [4]: 18.5 µM | TGI [5]: 11.2 µM | TGI [6]: 2.46 µM | TGI [7]: 16.8 µM | TGI [8]: 12.9 µM

CN1CCN(Cc2ccc(NC(=O)c3cncc(C#Cc4ccc(N)nc4)c3)cc2C(F)(F)F)CC1
GI50 [1]: 0.596 µM | TGI [1]: 3.9 µM | GI50 [2]: 0.945 µM | TGI [2]: 2.25 µM | GI50 [3]: 0.486 µM | TGI [3]: 2.16 µM | GI50 [4]: 0.476 µM | TGI [4]: 3.22 µM | GI50 [5]: 0.556 µM | TGI [5]: 1.28 µM | GI50 [6]: 0.486 µM | TGI [6]: 1.63 µM | GI50 [7]: 0.634 µM | TGI [7]: 1.71 µM | GI50 [8]: 1.42 µM | TGI [8]: 5.27 µM

COc1cc2ncnc(Oc3ccc(NC(=O)Nc4ccc(CN5CCOCC5)c(C(F)(F)F)c4)c4ccccc34)c2cc1OC
GI50 [1]: 0.802 µM | TGI [1]: 2.55 µM | GI50 [2]: 0.502 µM | TGI [2]: 2.76 µM | GI50 [3]: 1.28 µM | TGI [3]: 7.27 µM | GI50 [4]: 0.517 µM | TGI [4]: 3.25 µM | GI50 [5]: 1.09 µM | TGI [5]: 2.82 µM | GI50 [6]: 0.935 µM | TGI [6]: 4.14 µM | GI50 [7]: 1.2 µM | TGI [7]: 6.32 µM | GI50 [8]: 0.964 µM | TGI [8]: 4.12 µM

CC(=O)C1=C(C)N(Cc2ccccc2)C2(O)C=CC(=O)C3=C(O)c4ccccc4C(=O)C312 (centres undefined)
GI50 [1]: 1.99 µM | TGI [1]: 3.86 µM | GI50 [2]: > 100 µM | TGI [2]: > 100 µM | GI50 [3]: 18.5 µM | TGI [3]: 60 µM | GI50 [4]: 6.2 µM | TGI [4]: > 100 µM | GI50 [5]: 1.97 µM | TGI [5]: 4.39 µM | GI50 [6]: 3.18 µM | TGI [6]: 9.03 µM | GI50 [7]: 2.1 µM | TGI [7]: 5.97 µM | GI50 [8]: 5.77 µM | TGI [8]: 30.5 µM

CCN1CCN(c2ccc(NC(=O)Nc3nc4ccc(-c5ccccc5OC)cc4s3)cc2)CC1
GI50 [1]: 1.58 µM | TGI [1]: 3.01 µM | GI50 [2]: 1.73 µM | TGI [2]: 3.58 µM | GI50 [3]: 1.95 µM | TGI [3]: 4.45 µM | GI50 [4]: 1.87 µM | TGI [4]: 3.61 µM | GI50 [5]: 1.7 µM | TGI [5]: 3.17 µM | GI50 [6]: 1.62 µM | TGI [6]: 3.03 µM | GI50 [7]: 1.72 µM | TGI [7]: 3.28 µM | GI50 [8]: 2.11 µM | TGI [8]: 3.79 µM

CC1=CC(C)=N/C(=N/S(=O)(=O)c2cc(C)c(Cl)cc2SCc2ccccc2)NN1
GI50 [1]: > 100 µM | TGI [1]: > 100 µM | GI50 [2]: > 100 µM | TGI [2]: > 100 µM | GI50 [3]: > 100 µM | TGI [3]: > 100 µM | GI50 [4]: > 100 µM | TGI [4]: > 100 µM | GI50 [5]: > 100 µM | TGI [5]: > 100 µM | GI50 [6]: > 100 µM | TGI [6]: > 100 µM | GI50 [7]: > 100 µM | TGI [7]: > 100 µM | GI50 [8]: > 100 µM | TGI [8]: > 100 µM

COC(=O)C1=C(C)NC(=S)NC1c1ccc(N(CCCl)CCCl)cc1Cl (centres undefined)
TGI [1]: > 100 µM | TGI [2]: > 100 µM | TGI [3]: > 100 µM | TGI [4]: > 89.1 µM | TGI [5]: > 100 µM | TGI [6]: > 87.9 µM | TGI [7]: > 100 µM | TGI [8]: 44.5 µM

C=C1C(=O)O[C@@H]2/C=C(/C)[C@@H](OC(C)=O)C[C@@H](O)/C(C)=C\[C@@H](OC(=O)[C@]3(C)O[C@@H]3C)[C@@H]12
TGI [1]: 13.6 µM | TGI [2]: 7.85 µM | TGI [3]: > 100 µM | TGI [4]: 32.9 µM | TGI [5]: 20.4 µM | TGI [6]: 25 µM | TGI [7]: 29.9 µM | TGI [8]: 33.2 µM

CC1=C(CCC(C)CO)O[C@H]2C[C@H]3[C@@H]4CC[C@H]5C[C@@H](O)CC[C@]5(C)[C@H]4CC(=O)[C@]3(C)[C@@H]12 (some centres undefined)
TGI [1]: 47.7 µM | TGI [2]: 13.6 µM | TGI [3]: 52.5 µM | TGI [4]: 55 µM | TGI [5]: 33.8 µM | TGI [6]: 27 µM | TGI [7]: 47.3 µM | TGI [8]: 36.6 µM

Nc1ccc(C#Cc2ccccc2C#CCCCCO)cc1
GI50 [1]: 14.3 µM | TGI [1]: 28.2 µM | GI50 [2]: 23.4 µM | TGI [2]: 44 µM | GI50 [3]: 26.8 µM | TGI [3]: 64.7 µM | GI50 [4]: 16.1 µM | TGI [4]: 30.2 µM | GI50 [5]: 16.2 µM | TGI [5]: 29.7 µM | GI50 [6]: 14.1 µM | TGI [6]: 28.1 µM | GI50 [7]: 14 µM | TGI [7]: 27.5 µM | GI50 [8]: 18.9 µM | TGI [8]: 33.8 µM

CCN1CCN(C(=O)[C@]23CC[C@@H](C)[C@H](C)[C@@H]2C2=CC[C@@H]4[C@@]5(C)CCC(=O)C(C)(C)[C@@H]5CC[C@@]4(C)[C@]2(C)CC3)CC1
GI50 [1]: 0.798 µM | TGI [1]: 1.57 µM | GI50 [2]: 0.98 µM | TGI [2]: 2.18 µM | GI50 [3]: 1.07 µM | TGI [3]: 2.68 µM | GI50 [4]: 1.4 µM | TGI [4]: 4.85 µM | GI50 [5]: 0.821 µM | TGI [5]: 1.52 µM | GI50 [6]: 0.794 µM | TGI [6]: 1.61 µM | GI50 [7]: 0.779 µM | TGI [7]: 1.5 µM | GI50 [8]: 0.985 µM | TGI [8]: 2.19 µM

CC(C)[C@@H](C(=O)O[C@@H]1/C=C/C(=O)O[C@@H](C)CCC/C=C/[C@@H]2C[C@H](O)C[C@H]21)N(C)C
GI50 [1]: 22.3 µM | TGI [1]: 64.4 µM | GI50 [2]: 13.8 µM | TGI [2]: 36 µM | GI50 [3]: 6.4 µM | TGI [3]: 50.5 µM | GI50 [4]: 30.3 µM | TGI [4]: > 89 µM | GI50 [5]: 17 µM | TGI [5]: 39.9 µM | GI50 [6]: 15.2 µM | TGI [6]: 63.2 µM | GI50 [7]: 20.2 µM | TGI [7]: 63.2 µM | GI50 [8]: 20.8 µM | TGI [8]: > 81.9 µM

CC1=CC2(C)/C=C(C)/C=C\CC(O)/C=C3/C=CC(=C4C(=O)OC2(CC1C)C4=O)OC3 (centres undefined)
GI50 [1]: 0.541 µM | TGI [1]: 5.02 µM | GI50 [2]: 0.6 µM | TGI [2]: > 20.5 µM | GI50 [3]: 2.25 µM | TGI [3]: 6.97 µM | GI50 [4]: 2.93 µM | TGI [4]: 8.93 µM | GI50 [5]: 1.63 µM | TGI [5]: 3.2 µM | GI50 [6]: 2.8 µM | TGI [6]: 9.21 µM | GI50 [7]: 1.99 µM | TGI [7]: 4.25 µM | GI50 [8]: 1.82 µM | TGI [8]: 4.36 µM

Clc1ccc2c(NC3CCC(N4CCCCC4)CC3)ccnc2c1 (centres undefined)
TGI [1]: 44.7 µM | TGI [2]: 43.5 µM | TGI [3]: 56.4 µM | TGI [4]: > 100 µM | TGI [5]: 33 µM | TGI [6]: 18.1 µM | TGI [7]: 40 µM | TGI [8]: 29.4 µM

COc1ccc(C(=O)/C=C/c2ccc(OCc3cccc(C(F)(F)F)c3)c(OC)c2)cc1OC
GI50 [1]: 34.9 µM | TGI [1]: > 1000 µM | GI50 [2]: 24.8 µM | TGI [2]: 70.9 µM | GI50 [3]: 92.4 µM | TGI [3]: > 1000 µM | GI50 [4]: 60.2 µM | TGI [4]: > 1000 µM | GI50 [5]: 32.8 µM | TGI [5]: > 1000 µM | GI50 [6]: 70.9 µM | TGI [6]: > 1000 µM | GI50 [7]: 51.1 µM | TGI [7]: > 1000 µM | GI50 [8]: 613 µM | TGI [8]: > 1000 µM

C[C@]12CC[C@H]3[C@@H](CC[C@]4(O)C[C@@H](O)CC[C@]34C=O)[C@@]1(O)CC[C@@H]2C1=CC(=O)OC1
TGI [1]: 0.595 µM | TGI [2]: 47.6 µM | TGI [3]: > 100 µM | TGI [4]: 19.6 µM | TGI [5]: 2.46 µM | TGI [6]: 3.51 µM | TGI [7]: > 29.6 µM | TGI [8]: 2.5 µM

Cc1c(C(=O)Nc2ccc(N3C[C@@H](C)O[C@@H](C)C3)nc2)cccc1-c1ccc(OC(F)(F)F)cc1
GI50 [1]: 3.4 µM and 3.85 µM | TGI [1]: > 100 µM | GI50 [2]: 7.25 µM and 22.7 µM | TGI [2]: > 100 µM | GI50 [3]: 9.09 µM and 14.1 µM | TGI [3]: 49.3 µM and 43.8 µM | GI50 [4]: 9.63 µM and 11.6 µM | TGI [4]: 37.5 µM and 33.6 µM | GI50 [5]: 7.11 µM and 7.68 µM | TGI [5]: 31.9 µM and 67.5 µM | GI50 [6]: 14.4 µM and 19.3 µM | TGI [6]: > 100 µM | GI50 [7]: 5.91 µM and 11.8 µM | TGI [7]: 21.4 µM and 31.3 µM | GI50 [8]: 10.7 µM and 12.6 µM | TGI [8]: 38 µM and 74.7 µM
